Assay results taken from US20090208543A1, “METHOD AND APPARATUS FOR APPLYING A PROTECTIVE ORAL CARE COMPOSITION” (Oral Health Clinical Services, priority 2008, published 2009).

Test: Tooth bleaching effectiveness of gels on extracted human teeth (chroma meter, Delta E)
Details: comparison of catalase inhibitors
Protocol: Tooth bleaching effectiveness of the above gels was determined by using extracted human teeth. The teeth were freshly extracted, freed of all adherent tissues and stored in a sterile saline solution. The teeth were removed and the color was measured using a chroma meter commercially available from MINOLTA CR221. Readings were taken to record the L*, a*, and b* parameters. The teeth were then incubated in the various gels for 30 minutes. After this period, the gels were washed off and L*, a*, and b* parameters color re-measured. The change in color (Delta E) was then calculated using the CIE L*a*b* color difference equation:
Delta E=[(delta L*)^2+(delta a*)^2+(delta b*)^2]^0.5

Q: For `[F-].[Na+]` [sodium fluoride], which “effectiveness among the compositions comprising the inhibitors” value is on record?
A: least effective
